Values quoted from earlier work in patent publication US20160302965A1, “IMPLANTABLE THERAPEUTIC DEVICES” (ForSight Vision4, Inc., priority 2013, published 2016).

## Brc1c(NC2=NCCN2)ccc2nccnc12 [brimonidine]
pH 7
  solubility at pH 7: about 600 ug/ml

## CCNC(=O)CCC/C=C\C[C@@H]1[C@@H](/C=C/[C@@H](O)CCc2ccccc2)[C@H](O)C[C@@H]1O [bimatoprost]
  solubility of the prodrug (concentration maintained in the fluid boundary layer): 300 µg/mL
pH 7
  solubility in PBS at pH 7: 300 ug/ml

## CC(C)OC(=O)CCC/C=C\C[C@@H]1[C@@H](CC[C@@H](O)CCc2ccccc2)[C@H](O)C[C@@H]1O [latanoprost]
pH 7
  solubility in PBS at pH 7: 50 ug/ml

## O=C(O)CCC/C=C\C[C@@H]1[C@@H](CC[C@@H](O)CCc2ccccc2)[C@H](O)C[C@@H]1O [latanoprost free acid]
pH 7
  solubility in PBS at pH 7: 800 ug/ml
